# Assay results from patent US10681908B2, “Molecules having pesticidal utility, and intermediates, compositions, and processes, related thereto” (Dow AgroSciences LLC, priority 2016, dated 2020).
# Assays:
# Type in all cases: in vivo
# [1] = tested on: Cabbage Looper (Trichoplusia ni, TRIPNI); assay: Bioassay on Cabbage Looper (CL), 128-well diet tray assay; details: 168 h, 50 μg/cm^2 on artificial diet, second instar larvae, five to seven days, 25° C., read-out: CL % Control (or Mortality) rating
# Summary of the method: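 Percent mortality, averaged over eight wells, scored after five to seven days at 25° C. under 14:10 light-dark. Each well held 1–5 second-instar larvae on artificial diet treated with 50 μg/cm^2 test molecule applied in 90:10 acetone-water and dried.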
# [2] = tested on: Beet Armyworm (Spodoptera exigua, LAPHEG); assay: Bioassay on Beet Armyworm (BAW), 128-well diet tray assay; details: 168 h, 50 μg/cm^2 on artificial diet, second instar larvae, five to seven days, 25° C., read-out: BAW % Control (or Mortality) rating
# Summary of the method: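 Mortality of second-instar larvae (one to five per well) was scored after five to seven days at 25 °C under 14:10 light-dark and averaged across eight wells. Each well's diet had received 50 μg/cm^2 test molecule from a 90:10 acetone-water solution, allowed to dry before infestation.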
# [3] = tested on: Yellow Fever Mosquito (Aedes aegypti, AEDSAE); details: about 1 day-old larvae, 3 days, room temperature, scored on mortality
# Experimental: Example C: Bioassays on Yellow Fever Mosqurro (Aedes aegypti, AEDSAE) (“YFM”)
# Certain molecules disclosed in this document were tested against YFM using procedures described in the following paragraph. In the reporting of the results, the “GPA & YFM Rating Table” was used (See Table Section).
# Master plates containing 400 μg of a molecule dissolved in 100 μL of dimethyl sulfoxide (DMSO) (equivalent to a 4000 ppm solution) are used. A master plate of assembled molecules contains 15 μL per well. To this plate, 135 μL of a 90:10 water:acetone mixture is added to each well. A robot (Biomek® NXP Laboratory Automation Workstation) is programmed to dispense 15 μL aspirations from the master plate into an empty 96-well shallow plate (“daughter” plate). There are 6 reps (“daughter” plates) created per master. The created daughter plates are then immediately infested with YFM larvae.
# The day before plates are to be treated, mosquito eggs are placed in Millipore water containing liver powder to begin hatching (4 g. into 400 mL). After the daughter plates are created using the robot, they are infested with 220 μL of the liver powder/larval mosquito mixture (about 1 day-old larvae). After plates are infested with mosquito larvae, a non-evaporative lid is used to cover the plate to reduce drying. Plates are held at room temperature for 3 days prior to grading. After 3 days, each well is observed and scored based on mortality. The results are indicated in the table entitled “Table ABC: Biological Results” (See Table Section).
SMILES,mortality at 50 µg/cm2 [1] [%],mortality at 50 µg/cm2 [2] [%],YFM % Control (or Mortality) rating [3]
"C[C@H](C[S+]([O-])CCC(F)(F)F)NC(=O)c1ccc(/C(F)=C/C(c2cc(Cl)c(Cl)c(Cl)c2)C(F)(F)F)cc1C(F)(F)F (stereo partly drawn) [F121, 4-((Z)-1,4,4,4-Tetrafluoro-3-(3,4,5-trichlorophenyl)but-1-en-1-yl)-2-(trifluoromethyl)-N-((2R)-1-((3,3,3-trifluoropropyl)sulfinyl)propan-2-yl)benzamide]",50 to 100,50 to 100,A (80-100)
"C[C@H](CS(=O)(=O)CC(F)(F)F)NC(=O)c1ccc(/C(F)=C/C(c2cc(Cl)c(Br)c(Cl)c2)C(F)(F)F)cc1C(F)(F)F (stereo partly drawn) [F25, 4-((Z)-3-(4-Bromo-3,5-dichlorophenyl)-1,4,4,4-tetrafluorobut-1-en-1-yl)-N—((R)-1-((2,2,2-trifluoroethyl)sulfonyl)propan-2-yl)-2-(trifluoromethyl)benzamide]",50 to 100,50 to 100,A (80-100)
"C[C@H](CS(=O)(=O)CC(F)(F)F)NC(=O)c1ccc(/C(F)=C/C(c2cc(F)c(F)c(Cl)c2)C(F)(F)F)cc1C(F)(F)F (stereo partly drawn) [F103, 4-((Z)-3-(3-Chloro-4,5-difluorophenyl)-1,4,4,4-tetrafluorobut-1-en-1-yl)-N—((R)-1-((2,2,2-trifluoroethyl)sulfonyl)propan-2-yl)-2-(trifluoromethyl)benzamide]",50 to 100,50 to 100,A (80-100)
"C[C@H](CS(=O)(=O)CC(F)(F)F)NC(=O)c1ccc(/C(F)=C/C(c2cc(Cl)c(Cl)c(Cl)c2)C(F)F)cc1C(F)(F)F (stereo partly drawn) [F98, 4-((Z)-1,4,4-Trifluoro-3-(3,4,5-trichlorophenyl)but-1-en-1-yl)-N—((R)-1-((2,2,2-trifluoroethyl)sulfonyl)propan-2-yl)-2-(trifluoromethyl)benzamide]",50 to 100,50 to 100,A (80-100)
"C[C@H](C[S+]([O-])CC(F)(F)F)NC(=O)c1ccc(/C(F)=C/C(c2cc(Br)cc(Br)c2)C(F)(F)F)cc1C(F)(F)F (stereo partly drawn) [F31, 4-((Z)-3-(3,5-Dibromophenyl)-1,4,4,4-tetrafluorobut-1-en-1-yl)-N-((2R)-1-((2,2,2-trifluoroethyl)sulfinyl)propan-2-yl)-2-(trifluoromethyl)benzamide]",50 to 100,50 to 100,B (More than 0-Less than 80)
"O=C(NCCS(=O)(=O)CC(F)(F)F)c1ccc(/C(F)=C/C(c2cc(Cl)c(Cl)c(Cl)c2)C(F)(F)F)cc1C(F)(F)F (stereo not drawn) [F49, (Z)-4-(1,4,4,4-tetrafluoro-3-(3,4,5-trichlorophenyl)but-1-en-1-yl)-N-(2-((2,2,2-trifluoroethyl)sulfonyl)ethyl)-2-(trifluoromethyl)benzamide]",50 to 100,50 to 100,A (80-100)
"C=Cc1c(Cl)cc(C(/C=C(\F)c2ccc(C(=O)N[C@H](C)CS(=O)(=O)CC(F)(F)F)c(C(F)(F)F)c2)C(F)(F)F)cc1Cl (stereo partly drawn) [F33, 4-((Z)-3-(3,5-Dichloro-4-vinylphenyl)-1,4,4,4-tetrafluorobut-1-en-1-yl)-N—((R)-1-((2,2,2-trifluoroethyl)sulfonyl)propan-2-yl)-2-(trifluoromethyl)benzamide]",50 to 100,50 to 100,A (80-100)
"C=Cc1c(Cl)cc(C(/C=C(\F)c2ccc(C(=O)N[C@H](C)CSCC(F)(F)F)c(C(F)(F)F)c2)C(F)(F)F)cc1Cl (stereo partly drawn) [F32, 4-((Z)-3-(3,5-Dichloro-4-vinylphenyl)-1,4,4,4-tetrafluorobut-1-en-1-yl)-N—((R)-1-((2,2,2-trifluoroethyl)thio)propan-2-yl)-2-(trifluoromethyl)benzamide]",50 to 100,50 to 100,A (80-100)
"CCCC(F)(F)c1cc(Cl)cc(C(/C=C(\F)c2ccc(C(=O)N[C@H](C)CS(=O)(=O)CC(F)(F)F)c(C(F)(F)F)c2)C(F)(F)F)c1 (stereo partly drawn) [F143, 4-((Z)-3-(3-Chloro-5-(1,1-difluorobutyl)phenyl)-1,4,4,4-tetrafluorobut-1-en-1-yl)-N—((R)-1-((2,2,2-trifluoroethyl)sulfonyl)propan-2-yl)-2-(trifluoromethyl)benzamide]",50 to 100,50 to 100,D (No activity noticed in this bioassay)
"C[C@H](CSCC(F)(F)F)NC(=O)c1ccc(/C(F)=C/C(c2cc(Cl)cc(Cl)c2)C(F)(F)F)cc1C(F)(F)F (stereo partly drawn) [F19, 4-((Z)-3-(3,5-Dichlorophenyl)-1,4,4,4-tetrafluorobut-1-en-1-yl)-N—((R)-1-((2,2,2-trifluoroethyl)thio)propan-2-yl)-2-(trifluoromethyl)benzamide]",50 to 100,50 to 100,A (80-100)
"COc1ccc(C(/C=C(\F)c2ccc(C(=O)N[C@H](C)CS(=O)(=O)CC(F)(F)F)c(C(F)(F)F)c2)C(F)(F)F)cc1Cl (stereo partly drawn) [F142, 4-((Z)-3-(3-Chloro-4-methoxyphenyl)-1,4,4,4-tetrafluorobut-1-en-1-yl)-N—((R)-1-((2,2,2-trifluoroethyl)sulfonyl)propan-2-yl)-2-(trifluoromethyl)benzamide]",50 to 100,50 to 100,B (More than 0-Less than 80)
"C[C@H](C[S+]([O-])CC(F)(F)F)NC(=O)c1ccc(/C(F)=C/C(c2ccc(Cl)c(Cl)c2)C(F)(F)F)cc1C(F)(F)F (stereo partly drawn) [F28, 4-((Z)-3-(3,4-Dichlorophenyl)-1,4,4,4-tetrafluorobut-1-en-1-yl)-N-((2R)-1-((2,2,2-trifluoroethyl)sulfinyl)propan-2-yl)-2-(trifluoromethyl)benzamide]",50 to 100,50 to 100,B (More than 0-Less than 80)
"C[C@H](C[S+]([O-])CC(F)(F)F)NC(=O)c1ccc(/C(F)=C/C(c2cc(Cl)c(Br)c(Cl)c2)C(F)(F)F)cc1C(F)(F)F (stereo partly drawn) [F26, 4-((Z)-3-(4-Bromo-3,5-dichlorophenyl)-1,4,4,4-tetrafluorobut-1-en-1-yl)-N-((2R)-1-((2,2,2-trifluoroethyl)sulfinyl)propan-2-yl)-2-(trifluoromethyl)benzamide]",50 to 100,50 to 100,A (80-100)
"CCS(=O)(=O)C[C@@H](C)NC(=O)c1ccc(/C(F)=C/C(c2cc(Cl)cc(Cl)c2)C(F)(F)F)cc1C(F)(F)F (stereo partly drawn) [F45, 4-((Z)-3-(3,5-Dichlorophenyl)-1,4,4,4-tetrafluorobut-1-en-1-yl)-N—((R)-1-(ethylsulfonyl)propan-2-yl)-2-(trifluoromethyl)benzamide]",50 to 100,50 to 100,A (80-100)
"CCS(=O)(=O)C[C@@H](C)NC(=O)c1ccc(/C(F)=C/C(c2cc(Br)c(Cl)c(Br)c2)C(F)(F)F)cc1C(F)(F)F (stereo partly drawn) [F55, 4-((Z)-3-(3,5-Dibromo-4-chlorophenyl)-1,4,4,4-tetrafluorobut-1-en-1-yl)-N—((R)-1-(ethylsulfonyl)propan-2-yl)-2-(trifluoromethyl)benzamide]",50 to 100,50 to 100,A (80-100)
